Data taken from patent US11578051B2, “Thiophene carboxamide derivative and plant disease control agent comprising same” (KOREA RESEARCH INSTITUTE OF CHEMICAL TECHNOLOGY, priority 2018, dated 2023).

How the values were obtained:
Format in all cases: in vivo
[1] = system: cucumber powdery mildew pathogen (Sphaerotheca fusca); experiment: Cucumber powdery mildew control effect test; conditions: treatment concentration 10 ppm, as in Experimental Example 3
Description: A predetermined amount of the present compound corresponding to the test concentration was dissolved in 10% acetone and then was sprayed to foliage in a single leafy cucumber (variety: Baekdadagi) grown in a circular pot (6×7 cm, diameter×height). One day after application, the Cucumber plants were inoculated by spraying a spore suspension prepared with spores obtained from cucumber leaves infected with cucumber powdery mildew pathogen (Sphaerotheca fusca). After an incubation period of 1 day at 20° C. humid conditions, the plants were kept in a chamber for 12 days at a constant temperature and humidity under constant light conditions. After 13 days of the compound treatment, the disease incidence was assessed according to equation (1) of Experimental Example 1, and the control value was determined according to the criteria of Experimental Example 1. Compound No. 1 and the following four compounds as a comparative control compound were evaluated for controlling cucumber powdery mildew as described in Experimental Example 3.

[2] = system: rice sheath blight pathogen (Rhizoctonia solani); experiment: Rice sheath blight control effect test; conditions: rice (Chucheongbyeo), foliar spray, active ingredient 200 ppm, spraying dose 30 mL, assessed 5 days after treatment
Description: A predetermined amount of the present compound corresponding to the test concentration was dissolved in 10% acetone and then was sprayed to foliage in the 5-leaf stage rice (variety: Chucheongbyeo) grown in a circular pot (6×7 cm, diameter×height). One day after application, the rice plants were inoculated by spraying a mycelial suspension of a culture of rice sheath blight pathogen (Rhizoctonia solani) obtained by culturing in a rice bran culture medium and incubated to induce disease development for 5 days under a humid condition at 30° C. After 5 days of the compound treatment, the disease incidence was assessed according to the equation (1) of Experimental Example 1, and the control value was determined according to the criteria of Experimental Example 1.

[3] = system: cucumber sclerotinia pathogen (Sclerotinia sclerotiorum); experiment: Cucumber sclerotinia disease control effect test; conditions: cucumber (Baekdadagi), foliar spray, active ingredient 200 ppm, spraying dose 30 mL, assessed 4 days after treatment
Description: A predetermined amount of the present compound corresponding to the test concentration was dissolved in 10% acetone and then was sprayed to foliage in a single leafy cucumber (cultivar: Baekdadagi) grown in a circular pot (6×7 cm, diameter×height). One day after application, the Cucumber plants were inoculated by spraying a mycelial suspension of a liquid culture of cucumber sclerotinia pathogen (Sclerotinia sclerotiorum) and incubated for 4 days under constant light conditions and high humidity conditions at 25° C. to induce disease development. Four days after the compound treatment, the disease incidence was assessed according to equation (1) of Experimental Example 1, and the control value was determined according to the criteria of Experimental Example 1.

| SMILES | Activity (control value criterion) [1] | control value criterion [2] | control value criterion [3] |
| --- | --- | --- | --- |
| CON=Cc1ccc(-c2ccccc2NC(=O)c2cn(C)nc2C(F)F)cc1 [Comparative compound A, 3-(difluoromethyl)-N-(4′-((methoxyimino)methyl)-[1,1′-biphenyl]-2-yl)-1-methyl-1H-pyrazole-4-carboxamide] | 0 (less than 9% control value) |  |  |
| CON=Cc1ccc(-c2ccccc2NC(=O)c2sccc2C)cc1 [Comparative compound B, N-(4′-((methoxyimino)methyl)-[1,1′-biphenyl]-2-yl)-3-methylthiophene-2-carboxamide] | 1 (Control value 10-29%) |  |  |
| CON=Cc1ccc(-c2ccccc2NC(=O)c2cn(C)nc2C(F)F)cc1F [Comparative compound C, 3-(difluoromethyl)-N-(3′-fluoro-4′-((methoxyimino)methyl)-[1,1′-biphenyl]-2-yl)-1-methyl-1H-pyrazole-4-carboxamide] | 0 (less than 9% control value) |  |  |
| CON=Cc1c(F)cc(-c2ccccc2NC(=O)c2c(C(F)F)nn(C)c2Cl)cc1F [Comparative compound D, 5-chloro-N-(3′,5′-difluoro-4′-((methoxyimino)methyl)-[1,1′-biphenyl]-2-yl)-3-(difluoromethyl)-1-methyl-1H-pyrazole-4-carboxamide] | 1 (Control value 10-29%) |  |  |
| CON=Cc1c(F)cc(-c2ccccc2NC(=O)c2sccc2C)cc1F [Compound 1, N-(3′,5′-difluoro-4′-((methoxyimino)methyl)-[1,1′-biphenyl]-2-yl)-3-methylthiophene-2-carboxamide] | 5 (Control value 90-100%) | 5 (Control value 90-100%) | 5 (Control value 90-100%) |
